Results on 10 compounds are retold here after ChEMBL document CHEMBL5126653, “Targeted Degradation of Androgen Receptor for the Potential Treatment of Prostate Cancer” (ACS Med Chem Lett, 2022).

The target in this assay is Protein cereblon/Androgen receptor (Homo sapiens) (UniProt P10275+Q96SW2). Put plainly: In vivo protac activity at CRBN/AR in human VCaP cells xenografted in CB17 mouse assessed as increase in Androgen receptor degradation at 10 mg/kg, po for 16 hrs by ELISA. The class given is functional, organism-based.
Protein cereblon/Androgen receptor (Homo sapiens), sequence (P10275 whole entry, looked up): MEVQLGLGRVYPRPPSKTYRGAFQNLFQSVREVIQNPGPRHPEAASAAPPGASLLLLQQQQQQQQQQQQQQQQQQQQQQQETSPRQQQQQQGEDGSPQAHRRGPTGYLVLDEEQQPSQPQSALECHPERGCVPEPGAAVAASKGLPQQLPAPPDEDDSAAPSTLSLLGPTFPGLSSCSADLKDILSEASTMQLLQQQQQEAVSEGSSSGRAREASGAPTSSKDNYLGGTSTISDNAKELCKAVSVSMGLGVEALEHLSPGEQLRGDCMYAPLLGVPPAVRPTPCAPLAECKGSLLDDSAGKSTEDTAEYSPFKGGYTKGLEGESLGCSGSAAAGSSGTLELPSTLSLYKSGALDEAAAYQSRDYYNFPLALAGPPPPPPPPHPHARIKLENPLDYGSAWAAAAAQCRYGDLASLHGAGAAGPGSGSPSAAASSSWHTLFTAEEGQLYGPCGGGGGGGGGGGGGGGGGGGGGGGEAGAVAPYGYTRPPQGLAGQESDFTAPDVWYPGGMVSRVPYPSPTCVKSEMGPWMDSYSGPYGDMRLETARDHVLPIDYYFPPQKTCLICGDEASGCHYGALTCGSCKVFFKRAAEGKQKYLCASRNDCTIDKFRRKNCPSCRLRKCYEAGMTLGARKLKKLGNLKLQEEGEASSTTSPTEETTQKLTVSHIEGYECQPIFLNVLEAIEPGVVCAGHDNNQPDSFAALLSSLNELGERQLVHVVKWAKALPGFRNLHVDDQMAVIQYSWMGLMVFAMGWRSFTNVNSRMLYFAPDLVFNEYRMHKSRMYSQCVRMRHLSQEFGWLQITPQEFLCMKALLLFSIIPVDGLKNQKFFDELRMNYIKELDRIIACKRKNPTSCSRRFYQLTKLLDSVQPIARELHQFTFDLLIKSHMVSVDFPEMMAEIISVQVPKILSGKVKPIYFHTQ
Protein cereblon/Androgen receptor (Homo sapiens), sequence (Q96SW2 whole entry, looked up): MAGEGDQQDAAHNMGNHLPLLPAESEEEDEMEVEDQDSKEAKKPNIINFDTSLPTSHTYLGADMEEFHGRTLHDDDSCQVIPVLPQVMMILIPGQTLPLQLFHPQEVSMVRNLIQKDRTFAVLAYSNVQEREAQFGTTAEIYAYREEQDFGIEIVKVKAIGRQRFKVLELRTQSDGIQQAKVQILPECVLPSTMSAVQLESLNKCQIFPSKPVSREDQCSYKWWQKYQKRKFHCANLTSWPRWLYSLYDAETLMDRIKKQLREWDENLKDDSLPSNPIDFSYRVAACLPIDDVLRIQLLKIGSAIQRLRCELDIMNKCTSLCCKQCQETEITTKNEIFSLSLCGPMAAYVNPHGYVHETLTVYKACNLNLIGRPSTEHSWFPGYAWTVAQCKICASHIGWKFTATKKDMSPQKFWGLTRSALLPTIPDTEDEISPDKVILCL
Regarding `CC1(C)[C@H](NC(=O)c2ccc(N3CCN(CC4CCN(c5ccc6c(c5)C(=O)N(C5CCC(=O)NC5=O)C6=O)CC4)CC3)cc2)C(C)(C)[C@H]1Oc1ccc(C#N)c(Cl)c1` (stereo not given in full), the Activity came to 1%.
In the case of `CC1(C)[C@H](NC(=O)c2ccc(C3CCC(CN4CCN(c5ccc6c(c5)C(=O)N(C5CCC(=O)NC5=O)C6=O)CC4)CC3)cc2)C(C)(C)[C@H]1Oc1ccc(C#N)c(Cl)c1` (stereo not given in full), the Activity is 1%.
The figure for `CC1(C)[C@H](NC(=O)c2ccc(N3CCN(CCCOc4ccc5c(c4)C(=O)N(C4CCC(=O)NC4=O)C5=O)CC3)cc2)C(C)(C)[C@H]1Oc1ccc(C#N)c(Cl)c1` (stereo not given in full) is less than 1%; for `CC1(C)[C@H](NC(=O)c2ccc(N3CCN(CC4CN(c5ccc6c(c5)C(=O)N(C5CCC(=O)NC5=O)C6=O)C4)CC3)cc2)C(C)(C)[C@H]1Oc1ccc(C#N)c(Cl)c1` (stereo not given in full) it is less than 1%; for `CC1(C)[C@H](NC(=O)c2cnc(N3CCC(CN4CCN(c5ccc6c(c5)C(=O)N(C5CCC(=O)NC5=O)C6=O)CC4)CC3)nc2)C(C)(C)[C@H]1Oc1ccc(C#N)c(Cl)c1` (stereo not given in full) it is less than 1%.
`CC1(C)[C@H](NC(=O)c2ncc(N3CCN(CCCCCOc4ccc5c(c4)C(=O)N(C4CCC(=O)NC4=O)C5=O)CC3)cn2)C(C)(C)[C@H]1Oc1ccc(C#N)c(Cl)c1` (stereo not given in full): the Activity came out at 1%.
As for `CC1(C)[C@H](NC(=O)c2cnc(N3CCN(CCCCCOc4ccc5c(c4)C(=O)N(C4CCC(=O)NC4=O)C5=O)CC3)nc2)C(C)(C)[C@H]1Oc1ccc(C#N)c(Cl)c1` (stereo not given in full), the figure is less than 1%; as for `CC1(C)[C@H](NC(=O)c2ccc(N3CCC(CN4CCN(c5ccc6c(c5)C(=O)N(C5CCC(=O)NC5=O)C6=O)CC4)CC3)nc2)C(C)(C)[C@H]1Oc1ccc(C#N)c(Cl)c1` (stereo not given in full), less than 1%; as for `CC1(C)[C@H](NC(=O)c2ccc(CCCCN3CCN(c4ccc5c(c4)C(=O)N(C4CCC(=O)NC4=O)C5=O)CC3)nc2)C(C)(C)[C@H]1Oc1ccc(C#N)c(Cl)c1` (stereo not given in full), 10%.
As for `CC1(C)[C@H](NC(=O)c2ccc(N3CCN(CCCCCOc4ccc5c(c4)C(=O)N(C4CCC(=O)NC4=O)C5=O)CC3)nc2)C(C)(C)[C@H]1Oc1ccc(C#N)c(Cl)c1` (stereo not given in full), the figure is less than 1%.
